# Reference: ChEMBL document CHEMBL3885861, “Open TG-GATES”
# Species on record: Rattus norvegicus
# Assay: Open TG-GATES - Regimen: Single
# Type: toxicity, organism-based, Sprague-Dawley
# Set-up: regimen Single, gender Male, age 6 weeks
# Details: in vivo, po, 300 mg/kg, route gavage, dose level Middle; for APTT / Bas / Eos / Fbg / Hb / Ht / Lym / MCH / MCHC / MCV / Mono / Neu / PT / Plat / RBC / Ret / WBC: tissue Blood; for KIDNEY_L / KIDNEY_R / KIDNEY_TOTAL: tissue Kidney; for LIVER: tissue Liver; for A/G / ALP / ALT / AST / BUN / CRE / Ca / Cl / DBIL / GLC / IP / K / LDH / Na / PL / RALB / TBIL / TC / TG / TP / gamma-GTP: tissue Plasma
structure (smiles),measurement,setting,value
C[C@H]1O[C@H](O[C@H]2[C@H](O)[C@@H](O)[C@@H](O[C@H]3[C@H](O)[C@@H](O)C(O)O[C@@H]3CO)O[C@@H]2CO)[C@H](O)[C@@H](O)[C@@H]1N[C@H]1C=C(CO)[C@@H](O)[C@H](O)[C@H]1O (some centres not stated) [ACARBOSE],TERMINAL_BW,3 h,199.8 g
same,APTT,3 h,16.9 s
same,Bas,3 h,0%
same,Eos,3 h,0.8%
same,Fbg,3 h,290.6 mg/dL
same,Hb,3 h,13.5 g/dL
same,Ht,3 h,41.4%
same,Lym,3 h,77.8%
same,MCH,3 h,21.2 pg
same,MCHC,3 h,32.6%
same,MCV,3 h,65.1 fL
same,Mono,3 h,2.8%
same,Neu,3 h,17.8%
same,PT,3 h,13.4 s
same,Plat,3 h,115.1 x10_4/uL
same,RBC,3 h,636 x10_4/ul
same,Ret,3 h,8.7%
same,WBC,3 h,82.6 x10_2/uL
same,KIDNEY_L,3 h,0.9 g
same,KIDNEY_R,3 h,0.9 g
same,KIDNEY_TOTAL,3 h,1.9 g
same,LIVER,3 h,9 g
same,A/G,3 h,0.9
same,ALP,3 h,1420.8 IU/L
same,ALT,3 h,35.6 IU/L
same,AST,3 h,75.4 IU/L
same,BUN,3 h,9.8 mg/dL
same,CRE,3 h,0.2 mg/dL
same,Ca,3 h,10.9 mg/dL
same,Cl,3 h,104.6 meq/L
same,DBIL,3 h,0.004 mg/dL
same,GLC,3 h,172.4 mg/dL
same,IP,3 h,10 mg/dL
same,K,3 h,4 meq/L
same,LDH,3 h,67.8 IU/L
same,Na,3 h,141.2 meq/L
same,PL,3 h,140 mg/dL
same,RALB,3 h,2.5 g/dL
same,TBIL,3 h,0.066 mg/dL
same,TC,3 h,79.8 mg/dL
same,TG,3 h,51.6 mg/dL
same,TP,3 h,5.2 g/dL
same,gamma-GTP,3 h,1.2 IU/L
same,TERMINAL_BW,6 h,198.7 g
same,APTT,6 h,17 s
same,Bas,6 h,0%
same,Eos,6 h,0.8%
same,Fbg,6 h,290.6 mg/dL
same,Hb,6 h,13.2 g/dL
same,Ht,6 h,40.6%
same,Lym,6 h,75.8%
same,MCH,6 h,20.8 pg
same,MCHC,6 h,32.4%
same,MCV,6 h,64 fL
same,Mono,6 h,3%
same,Neu,6 h,19.6%
same,PT,6 h,13.5 s
same,Plat,6 h,124.8 x10_4/uL
same,RBC,6 h,635 x10_4/ul
same,Ret,6 h,8.7%
same,WBC,6 h,86.3 x10_2/uL
same,KIDNEY_L,6 h,0.9 g
same,KIDNEY_R,6 h,0.9 g
same,KIDNEY_TOTAL,6 h,1.8 g
same,LIVER,6 h,8.2 g
same,A/G,6 h,0.9
same,ALP,6 h,1441 IU/L
same,ALT,6 h,35 IU/L
same,AST,6 h,70 IU/L
same,BUN,6 h,9.6 mg/dL
same,CRE,6 h,0.2 mg/dL
same,Ca,6 h,10.8 mg/dL
same,Cl,6 h,104 meq/L
same,DBIL,6 h,0.004 mg/dL
same,GLC,6 h,160.4 mg/dL
same,IP,6 h,10.5 mg/dL
same,K,6 h,4 meq/L
same,LDH,6 h,57 IU/L
same,Na,6 h,141.4 meq/L
same,PL,6 h,133.6 mg/dL
same,RALB,6 h,2.5 g/dL
same,TBIL,6 h,0.058 mg/dL
same,TC,6 h,71 mg/dL
same,TG,6 h,38.6 mg/dL
same,TP,6 h,5.2 g/dL
same,gamma-GTP,6 h,1 IU/L
same,TERMINAL_BW,9 h,195.2 g
same,APTT,9 h,17 s
same,Bas,9 h,0.4%
same,Eos,9 h,0.8%
same,Fbg,9 h,292.8 mg/dL
same,Hb,9 h,13.5 g/dL
same,Ht,9 h,42%
same,Lym,9 h,80.4%
same,MCH,9 h,20.7 pg
same,MCHC,9 h,32%
same,MCV,9 h,64.8 fL
same,Mono,9 h,2.2%
same,Neu,9 h,15.6%
same,PT,9 h,13.4 s
same,Plat,9 h,119.8 x10_4/uL
same,RBC,9 h,650.2 x10_4/ul
same,Ret,9 h,8.7%
same,WBC,9 h,84.7 x10_2/uL
same,KIDNEY_L,9 h,1 g
same,KIDNEY_R,9 h,0.9 g
same,KIDNEY_TOTAL,9 h,1.9 g
same,LIVER,9 h,7.7 g
same,A/G,9 h,0.9
same,ALP,9 h,1353.2 IU/L
same,ALT,9 h,36.8 IU/L
same,AST,9 h,76 IU/L
same,BUN,9 h,8.6 mg/dL
same,CRE,9 h,0.2 mg/dL
same,Ca,9 h,10.3 mg/dL
same,Cl,9 h,105.4 meq/L
same,DBIL,9 h,0 mg/dL
same,GLC,9 h,169.8 mg/dL
same,IP,9 h,10.7 mg/dL
same,K,9 h,3.8 meq/L
same,LDH,9 h,61 IU/L
same,Na,9 h,141.4 meq/L
same,PL,9 h,131.4 mg/dL
same,RALB,9 h,2.4 g/dL
same,TBIL,9 h,0.06 mg/dL
same,TC,9 h,77 mg/dL
same,TG,9 h,36.2 mg/dL
same,TP,9 h,5.2 g/dL
same,gamma-GTP,9 h,1.2 IU/L
same,TERMINAL_BW,24 h,210.8 g
same,APTT,24 h,17.1 s
same,Bas,24 h,0%
same,Eos,24 h,1%
same,Fbg,24 h,248.4 mg/dL
same,Hb,24 h,13.1 g/dL
same,Ht,24 h,40.2%
same,Lym,24 h,76%
same,MCH,24 h,21.3 pg
same,MCHC,24 h,32.6%
same,MCV,24 h,65.2 fL
same,Mono,24 h,3.4%
same,Neu,24 h,18.8%
same,PT,24 h,13.3 s
same,Plat,24 h,121 x10_4/uL
same,RBC,24 h,617.4 x10_4/ul
same,Ret,24 h,7.8%
same,WBC,24 h,102.2 x10_2/uL
same,KIDNEY_L,24 h,0.9 g
same,KIDNEY_R,24 h,0.9 g
same,KIDNEY_TOTAL,24 h,1.8 g
same,LIVER,24 h,9.9 g
same,A/G,24 h,0.9
same,ALP,24 h,1736 IU/L
same,ALT,24 h,42.2 IU/L
same,AST,24 h,71.8 IU/L
same,BUN,24 h,13.4 mg/dL
same,CRE,24 h,0.2 mg/dL
same,Ca,24 h,10.9 mg/dL
same,Cl,24 h,104.8 meq/L
same,DBIL,24 h,0.012 mg/dL
same,GLC,24 h,176.4 mg/dL
same,IP,24 h,8 mg/dL
same,K,24 h,3.9 meq/L
same,LDH,24 h,60.6 IU/L
same,Na,24 h,142.6 meq/L
same,PL,24 h,134.8 mg/dL
same,RALB,24 h,2.6 g/dL
same,TBIL,24 h,0.062 mg/dL
same,TC,24 h,71.2 mg/dL
same,TG,24 h,74 mg/dL
same,TP,24 h,5.4 g/dL
same,gamma-GTP,24 h,1 IU/L
